Experimental findings from patent US10934263B2, “Charged ion channel blockers and methods for use” (Nocion Therapeutics, Inc., priority 2019, dated 2021) are described below.

The structures appear in SMILES notation.

The target of series [1] is T1, NaV1.7 (Homo sapiens, UniProt Q15858).
T1 construct: expressed in transfected cells; tetracycline-inducible, kept under hygromycin and blasticidin
The experiment in a line: Automated patch clamp (Qube 384), internal block of NaV1.7 in HEK293 cells. The class given is cell-based. The note with it: compound in internal solution, read-out: Nav1.7 Intracellular Inhibition (IC50). The method, then:
(§1) NaV1.7 was expressed in HEK293 cells upon induction with tetracycline. Cells were cultured in DMEM containing 10% dialyzed Fetal Bovine Serum (VWR, Radnor, Pa.), 1% Glutamax (VWR, Radnor, Pa.), 1% Penicillin-Streptomycin (VWR, Radnor, Pa.), 100 mg/L Hygromycin (Thermo Fisher Scientific, Waltham, Mass. and 5 mg/L Blasticidin (Alfa Aesar, Haverhill, Mass.). Cells were grown and maintained at 37° C. in a humidified environment containing 10% CO2 in air. Cells were detached from the culture flask for passage and harvested using 0.05% Trypsin-EDTA (Thermo Fisher Scientific, Waltham, Mass.). To induce NaV1.7, cells were induced with tetracycline (0.1-1 μg/mL, IBI Scientific, Peosta, Iowa) the day before recording.
(§2) Before experiments, cells were washed with DPBS (VWR, Radnor, Pa.), digested with Detachin (VWR Radnor, Pa.) and then triturated 10 times in CHO Serum-Free Media (VWR Radnor, Pa.) to resuspend the cells and to break apart cell aggregates. Cells were counted and the final concentration was set at 2-5 million cells per mL.
(§3) The intracellular solution contained the following: 140 mM CsF, 1 mM/5 mM EGTA/CsOH, 10 mM HEPES, 10 mM NaCl, adjusted to pH 7.3 with CsOH, and osmolality to 320 with sucrose. The external solution contained the following: 145 mM NaCl, 4 mM KCl, 1 mM MgCl2, 2 mM CaCl2, 10 mM HEPES, 10 mM Glucose, adjusted to pH 7.4 with CsOH and osmolality to 305 with sucrose. All chemicals are from Sigma-Aldrich, St. Louis, Mo. In order to test the degree of internal block by test compounds, the compounds were dissolved in internal solution at the indicated test concentration. […] In order to test the degree of external block by test compounds the compounds were dissolved in external solution at the indicated test concentration.
(§4) Automated Patch Clamps were performed on Qube 384 (Sophion Bioscience, Woburn Mass.) with multihole Qchips at a temperature setting of 22 degrees. The whole cells configuration was formed with default Qube seal and break-in parameter. The membrane potential was held at −100 mV before the voltage protocol began. Two voltage protocols were followed.
(§5) Step 1: Cells were held at −100 mV with a depolarized pulse to −20 mV for 10 ms, the interval was set at 5 s. Currents were corrected by default leak subtraction from every pulse. The duration was set at 5 mins.
(§6) Step 2: Cells were held at −100 mV with a depolarized pulse to −20 mV for 10 ms. The frequency was 5 Hz. Currents were corrected by leak subtraction calculated before step 2. The duration was set at 4 mins.
After Step 2, the Qchip was removed from the recording chamber. The internal solution was changed with solutions containing test compounds. Qchips were held at −100 mV without pulsing after being replaced in the recording chamber. The total solution switching time was 8 minutes. After the internal solution exchange, Cells were recorded and step 2 for repeated for 10 minutes.
Data analysis was performed by Sophion Analyzer. Cells were filtered with minimum 50 MOhm seal resistance and minimum 5 nA starting current. The rundown of the currents was corrected with control cells (Non-Drug). The remaining was calculated by averaging last 3 points in the end of experiments. The base line was calculated as the average of last 3 points of Step 2. IC50 curves were plotted with DR-plots/Hill function (a dose-response plot with a Hill fit). Data analysis was performed by Sophion Analyzer.

Series [2] deals with T1, NaV1.7. As to the kind of experiment: Automated patch clamp (Qube 384), external block of NaV1.7 in HEK293 cells. The note with it: compound in external solution, read-out: Nav1.7 Extracellular Inhibition (IC50). The class given is cell-based. The method, then: as §1, §2, §3, §4, §5, §6
After Step 2, the external solution was changed with solutions containing test compounds. Qchips were held at −100 mV without pulsing. The total solution switching time was 8 minutes. After the external solution exchange, cells were recorded using the same procedure as step 2 for 10 minutes.
Data analysis was performed by Sophion Analyzer. Data were corrected with control cells (Non-Drug). The IC50 data were plotted with DR-plots/Hill function (a dose-response plot with a Hill fit).
On the technique in general: In patch-clamp work, channel activity is measured electrically.

The nature of series [3]: PAMPA membrane permeability assay. The class given is in vitro ADME. The note with it: PAMPA permeability coefficient, GIT lipid, buffer pH 7.4, 4 hours incubation. As for the experimental part:
The PAMPA assay (pION, Inc., Woburn Mass.) was used to determine the ability of compounds of the invention to cross an artificial lipid membrane by passive diffusion. Test compounds were dissolved in DMSO (10 mM) and diluted 200-fold in buffer (pION Inc., pH 7.4) to provide 50 uM stock solutions. Buffer (150 μL) was added to a UV blank plate and stock solutions (150 μL) were transferred to a UV reference plate. The blank and reference spectrum were read using a spectrophotometer. Stock solutions (200 μL) were added to the donor plate of the PAMPA sandwich plate and an accept plate painted with GIT lipid (pION Inc, 5 μL) was placed on top. Buffer (200 μL) was added to the acceptor plate and the PAMPA sandwich plate was incubated for 4 hours. Aliquots (150 μL) from the acceptor plate were added to a UV plate and read as acceptor spectrum. Aliquots (150 μL) of the donor solutions were added to a UV analysis plate and read as donor spectrum. The permeability coefficient of test compounds was calculated using PAMPA Explorer™ software (version 3.5.0.4) based on the AUC of the reference plate, the donor plate, and the acceptor plate.
Background: In PAMPA a lipid-coated filter parts donor from acceptor wells.

Series [4] has as its target T1, NaV1.7. As to the kind of experiment: Whole cell patch clamp, internal block of NaV1.7 current (compound in internal solution). The conditions noted are these: % inhibition at 10 μM, compound applied internally, manual patch clamp; read-out: Nav1.7 Intracellular Inhibition. The class given is cell-based. As for the experimental part: Representative compounds of the invention were synthesized according to the described methods and tested for the ability to inhibit voltage-gated sodium channels.
as §1, with “expressed” for “expressed in HEK293 cells”, “recording and plated onto 24-well plates. Cells were washed with DPBS (VWR, Radnor, Pa.), trypsinized and then triturated five times in 10 mL of growth media to break apart cell aggregates. For one 24-well plate, 2 mL of cell suspension was mixed with 23 mL of fresh growth media and 0.1-1 μg/mL tetracycline added. 1 ml of mixed media with cells was then added to each well of a 24-well plate, with a 12 mm coverslip already placed in the bottom of the well. Cells were then incubated in 37° C. and 10% CO2 overnight.” for “recording.”
The intracellular solution contained the following (in mM) CsCl 135, NaCl 10, EGTA 10, HEPES 10, MgCl2 2, adjusted to pH 7.2 with CsOH. The external solution was a normal Ringer solution containing (in mM) NaCl 155, HEPES 10, glucose 10, KCl 3.5, CaCl2 1.5, MgCl2 1 adjusted to pH 7.4 with NaOH. CsCl is from Alfa Aesar, Haverhill, Mass. All other chemicals are from Sigma-Aldrich, St. Louis, Mo. In order to test the degree of internal block by test compounds the compounds were dissolved in internal solution at the indicated test concentration. […] In order to test the degree of external block by test compounds the compounds were dissolved in external solution at the indicated test concentration.
18-24 hours after cells were induced with tetracycline, coverslips were placed into a chamber filled with Normal Ringer solution at room temperature and the chamber placed on a microscope. Pipettes were pulled from borosilicate glass on a P97 puller (Sutter Instrument, Novato, Calif.) and polished with a MF-830 Microforge (Narishige International USA, Inc, Amityville, N.Y.) to have a resistance of 1.5-2.5 MΩ when filled with CsCl internal solution at room temperature. Healthy cells (those that are round and translucent with no visible blemishes) were chosen for seal formation. A seal was formed between the pipette and the cell, and a brief pulse of suction was used to “break in” and establish the whole-cell configuration. The membrane potential was held at −100 mV before the voltage protocol began. Only cells with series resistance between 1.5-5 MΩ were retained for analysis. The voltage protocol was as follows: Cells were held at −100 mV for 12 ms followed by a hyperpolarizing step to −105 mV for 12 ms to monitor the leak. Cells were then stepped back to −100 mV for 40 ms. Cells were then depolarized to −20 mV for 10 ms and then returned to −100 mV for 26 ms.
Once the recording was started, the voltage protocol was run at 30 second intervals for 5 minutes to get a stable baseline. This was followed by four 30-second periods of 5 Hz stimulation of the same voltage protocol separated by 1 minute of rest which was then followed by 0.33 Hz stimulation after the last train. Currents were recorded using PatchMaster software with Heka EPC10 (HEKA Electronics, Lambrecht, Germany). Only cells with inward current amplitudes at −20 mV between 400 pA and 4 nA were accepted. In addition, cells having leak currents greater than 10% of their current amplitudes were discarded. […]

T1 sequence (Q15858 whole entry): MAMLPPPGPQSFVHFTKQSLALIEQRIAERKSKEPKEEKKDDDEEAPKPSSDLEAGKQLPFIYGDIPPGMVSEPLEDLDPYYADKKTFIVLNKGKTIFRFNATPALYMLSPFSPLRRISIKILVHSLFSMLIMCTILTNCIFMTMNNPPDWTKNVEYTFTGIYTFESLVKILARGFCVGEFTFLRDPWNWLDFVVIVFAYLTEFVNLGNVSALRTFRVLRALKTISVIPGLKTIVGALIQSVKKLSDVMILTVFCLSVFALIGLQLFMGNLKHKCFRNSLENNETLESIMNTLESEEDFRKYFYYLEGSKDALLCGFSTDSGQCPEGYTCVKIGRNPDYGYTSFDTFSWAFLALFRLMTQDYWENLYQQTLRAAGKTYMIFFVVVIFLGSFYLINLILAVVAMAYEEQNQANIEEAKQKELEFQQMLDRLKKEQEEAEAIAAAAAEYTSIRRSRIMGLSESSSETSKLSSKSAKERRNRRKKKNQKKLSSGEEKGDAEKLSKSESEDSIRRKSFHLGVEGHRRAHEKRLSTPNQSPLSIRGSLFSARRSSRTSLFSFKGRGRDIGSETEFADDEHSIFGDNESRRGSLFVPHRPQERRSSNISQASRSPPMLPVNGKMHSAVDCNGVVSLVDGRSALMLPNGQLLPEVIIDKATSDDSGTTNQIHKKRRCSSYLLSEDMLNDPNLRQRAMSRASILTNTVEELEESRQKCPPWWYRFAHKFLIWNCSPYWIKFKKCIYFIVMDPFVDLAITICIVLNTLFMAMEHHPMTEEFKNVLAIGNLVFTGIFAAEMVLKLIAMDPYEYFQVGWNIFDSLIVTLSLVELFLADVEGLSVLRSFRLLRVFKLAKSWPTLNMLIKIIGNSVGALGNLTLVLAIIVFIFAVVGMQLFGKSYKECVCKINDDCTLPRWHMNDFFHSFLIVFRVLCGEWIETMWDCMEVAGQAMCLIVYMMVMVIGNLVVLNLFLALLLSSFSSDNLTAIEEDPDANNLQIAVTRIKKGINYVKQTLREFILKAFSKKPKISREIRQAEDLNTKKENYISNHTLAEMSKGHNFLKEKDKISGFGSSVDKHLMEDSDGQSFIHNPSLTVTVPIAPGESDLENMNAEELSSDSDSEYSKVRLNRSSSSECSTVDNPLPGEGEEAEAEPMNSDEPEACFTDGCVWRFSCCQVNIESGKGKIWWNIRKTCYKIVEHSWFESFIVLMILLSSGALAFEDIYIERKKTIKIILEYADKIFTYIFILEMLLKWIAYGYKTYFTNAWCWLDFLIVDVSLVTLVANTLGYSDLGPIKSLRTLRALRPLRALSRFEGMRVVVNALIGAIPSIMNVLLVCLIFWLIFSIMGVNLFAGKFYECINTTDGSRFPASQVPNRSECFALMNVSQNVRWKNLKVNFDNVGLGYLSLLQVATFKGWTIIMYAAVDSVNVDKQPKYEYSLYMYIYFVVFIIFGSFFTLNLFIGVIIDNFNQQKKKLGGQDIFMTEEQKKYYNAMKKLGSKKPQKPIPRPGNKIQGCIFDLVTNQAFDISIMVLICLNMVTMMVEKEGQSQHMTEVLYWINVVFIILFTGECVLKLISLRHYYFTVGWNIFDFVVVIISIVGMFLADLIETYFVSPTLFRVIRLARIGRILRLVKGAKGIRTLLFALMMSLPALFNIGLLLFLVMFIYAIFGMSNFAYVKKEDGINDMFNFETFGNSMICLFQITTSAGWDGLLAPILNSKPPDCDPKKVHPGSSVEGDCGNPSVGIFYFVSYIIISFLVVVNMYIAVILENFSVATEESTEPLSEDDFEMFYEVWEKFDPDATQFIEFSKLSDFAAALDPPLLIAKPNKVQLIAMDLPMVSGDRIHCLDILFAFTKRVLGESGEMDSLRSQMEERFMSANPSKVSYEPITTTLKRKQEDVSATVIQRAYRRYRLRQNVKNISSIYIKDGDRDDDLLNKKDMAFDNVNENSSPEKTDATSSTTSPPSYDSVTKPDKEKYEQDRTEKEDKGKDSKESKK

As a reminder, the IC50 is the concentration needed to halve the response being measured. Turning to `CCNC(=O)Cn1ccc[n+]1CC(=O)Nc1c(C)cccc1C` [Compound 30], the half-inhibitory concentration (IC50) in series [1] is 1 to 3 µM; in series [2] it was above 100 µM.
As to `Cc1cccc(C)c1NC(=O)C[n+]1cccc(C(C)C)c1` [Compound 31], in series [3], the “PAMPA (10^−6 cm/s)” value was “++ (0.1-2.0 10^−6 cm/s)”. In addition, the IC50 was 1 to 3 µM in series [1] and above 100 µM in series [2].
A word on the inhibition: it is the relative decrease from the control value, in per cent. For the molecule `Cc1cccc(C)c1NC(=O)C[n+]1cccc(C(C)(C)C)c1` [Compound 32], the inhibition at 10 µM in series [4] lay in the range of 70 to 95%. Besides, the IC50 in series [1] was 1 to 3 µM; in series [2] it was above 100 µM.
On to `CNC(=O)c1ccc[n+](CC(=O)Nc2c(C)cccc2C)c1` [Compound 40], for which the inhibition at 10 µM in series [4] fell in the range of 70 to 95%. In addition, the half-inhibitory concentration (IC50) in series [1] is 1 to 3 µM; in series [2] it was above 100 µM.
The like results for `Cc1cccc(C)c1NC(=O)C[n+]1cccc(N)c1` [Compound 49] were, in that order, 70 to 95%, 3 to 10 µM and above 100 µM.
With `Cc1cccc(C)c1NC(=O)C[n+]1cc(F)c2ccccc2c1` [Compound 67], the inhibition at 10 µM in series [4] is 40 to 70%. Further, the IC50 in series [1] was 3 to 10 µM; in series [2], below 10 µM.
`Cc1cccc(C)c1NC(=O)C[n+]1cccn1C1CC1` [Compound 68]: the “PAMPA (10^−6 cm/s)” value in series [3] is given as “+ (<0.1 10^−6 cm/s)”. In addition, the IC50 in series [1] was 1 to 3 µM; in series [2] it was above 100 µM.
The like results for `Cc1cccc(C)c1NC(=O)C[n+]1cccn1CCC#N` [Compound 70] were, in that order, “+ (<0.1 10^−6 cm/s)”, 10 to 30 µM and above 100 µM.
Regarding `Cc1cccc(C)c1NC(=O)C[n+]1cccn1C1CCC1` [Compound 72], the “PAMPA (10^−6 cm/s)” value in series [3] is “+ (<0.1 10^−6 cm/s)”. The values for the IC50 in series [1] and in series [2] were 3 to 10 µM and above 100 µM, respectively.
For `Cc1cccc(C)c1NC(=O)C[n+]1cccn1CCC(C)C` [Compound 74] the same measures were “+ (<0.1 10^−6 cm/s)”, 3 to 10 µM and above 100 µM.
Consider `COc1cc(F)c[n+](CC(=O)Nc2c(C)cccc2C)c1` [Compound 78], for which, in series [3], the “PAMPA (10^−6 cm/s)” value was “+ (<0.1 10^−6 cm/s)”. The IC50 in series [1] was 1 to 3 µM; in series [2], above 100 µM.
For the molecule `Cc1cccc(C)c1NC(=O)C[n+]1cc(F)ccc1-c1ccccc1` [Compound 79], the inhibition at 10 µM in series [4] is above 95%. For the same molecule, the IC50 in series [1] fell in the range of 1 to 3 µM; in series [2], 30 to 100 µM.
For `CCOC(=O)CCn1ccc[n+]1CC(=O)Nc1c(C)cccc1C` [Compound 80], the “PAMPA (10^−6 cm/s)” value in series [3] is reported as “+ (<0.1 10^−6 cm/s)”. For the same molecule, the IC50 is 1 to 3 µM in series [1] and above 100 µM in series [2].
With `Cc1cccc(C)c1NC(=O)C[n+]1ccc(C)n1C(C)C` [Compound 82], the “PAMPA (10^−6 cm/s)” value in series [3] is recorded as “+ (<0.1 10^−6 cm/s)”. Moreover, the IC50 in series [1] is 1 to 3 µM; in series [2], above 100 µM.
For the molecule `CCOC(=O)Cn1ccc(C)[n+]1CC(=O)Nc1c(C)cccc1C` [Compound 85], in series [3], the “PAMPA (10^−6 cm/s)” value is “+ (<0.1 10^−6 cm/s)”. Further, the IC50 in series [1] was 3 to 10 µM; in series [2] it was above 100 µM.
In the case of `CCOC(=O)Cn1c(C)cc[n+]1CC(=O)Nc1c(C)cccc1C` [Compound 86], in series [3], the “PAMPA (10^−6 cm/s)” value is listed as “+ (<0.1 10^−6 cm/s)”. Further, the IC50 is 3 to 10 µM in series [1] and above 100 µM in series [2].
`Cc1cccc(C)c1NC(=O)C[n+]1c2ccc(Cl)cc2cn1C` [Compound 96]: the inhibition at 10 µM in series [4] was 70 to 95%. The IC50 in series [1] fell in the range of 3 to 10 µM; in series [2], 30 to 100 µM.
Consider `COc1cc(C#N)c[n+](CC(=O)Nc2c(C)cccc2C)c1` [Compound 97], for which the inhibition at 10 µM in series [4] was 70 to 95%. Further, the half-maximal inhibitory concentration (IC50) in series [1] is 10 to 30 µM; in series [2] it was below 10 µM.
For `Cc1cccc(C)c1NC(=O)C[n+]1cc(-c2ccccc2)c2ccccc2c1` [Compound 100], the values for the IC50 in series [1] and in series [2] were 1 to 3 µM and below 10 µM, respectively.
